From patent US20230181681A1, “PEPTIDE FOR SUPPRESSING CORONAVIRUS AND USE THEREOF” (priority 2020, published 2023)
Ends that are not written are not given here.

Assays:
HCoV-OC43 [1] = experiment: HCoV-OC43 S and N protein production in infected Vero cells (Western blotting, confocal microscopy); type: cell-based; settings: 0.1 MOI, peptide 6 hours after infection, 48 h, FIGS. 20 to 22
MERS-CoV = type: cell-based
SARS-CoV-2 = type: cell-based
HCoV-OC43 [2] = experiment: HCoV-OC43 production in Vero cells by plaque formation assay; type: cell-based; settings: 0.1 MOI, 2 μM peptide 6 hours after infection, 48 hours, plaque formation test, FIG. 23
MERS-CoV N protein = type: binding
[3] = system: interaction of MERS-CoV Spike CD with MERS-CoV N protein; type: binding

**Q.** With “CCTGCGTSCFKKCGGCCDDYTGYQELVIKTSHDD [Spike CD-OC43]” as the substance, how does the “production of S protein and N protein of HCoV-OC43” value (HCoV-OC43 [1]) read?
**A.** Its value is “no effect was observed”.

**Q.** How did the MERS-CoV plaque formation (MERS-CoV) turn out when “NH2-d-RRRRRRRRRR-AQARRKNYGQLDIFP-COOH [R-CP-1]” was run?
**A.** The MERS-CoV plaque formation was “no effect was observed”.

**Q.** What about the “reduction of SARS-CoV-2 production” value (SARS-CoV-2) of the same substance?
**A.** The value was 40%.

**Q.** “R-Spike CD-OC43 (RRRRRRRRRCCTGCGTSCFKKCGGCCDDYTGYQELVIKTSHDD; not fully specified; cysteine pairing not given here)” was tested. Which “reduction of HCoV-OC43 production” value (HCoV-OC43 [2]) did it give?
**A.** Its value is 20%.

**Q.** Which results are given for TGCGTNCMGKLKCNRC [Spike CD-F]?
**A.** binding of Spike CD peptides with N protein (MERS-CoV N protein): can tightly bind with N protein; relative activity in inhibiting the interaction between Spike CD-Full and N protein [3]: highest activity
